From patent US10137181B2, “Isolated donor MHC-derived peptide and uses thereof” (INSERM (INSTITUT NATIONAL DE LA SANTÉ ET DE LA RECHERCHE …, priority 2014, dated 2018)

Experiments:
[1] = system: CD8^+CD40Ig Tregs; assay: MLR coculture assay: CD8+CD40Ig Treg activation (CD25 expression) by donor MHC-derived peptides in the presence of syngeneic pDCs; format: cell-based, rat; conditions: 6 days culture, CpG-matured syngeneic pDCs; for activation of CD8+CD40Ig Tregs (CD25 upregulation), in words: individual peptide, derivatives compared with Bu31
Text: FIG. 1: Analysis of CD8+CD45RClow Tregs activation in response to donor-derived peptide stimulation. (A) CD8+ Tregs were cocultured for 6 days with syngeneic CpG-matured pDCs in the presence of peptides. For each experiment, the percentage of CD25 positive Tregs after 6 days of coculture with pDCs only, was given the value 1. Mean value 1 is equal to 32.85±1.98%. Results are expressed as the ratio±SEM between the percentage of CD25 positive cells after peptide stimulation and percentage of CD25 positive cells in the control condition without peptide. *p<0.05, **p<0.01 and ***p<0.001 versus control condition (value 1.0). n=4 to 18 for each peptide. (B) Analysis of Treg activation in response to Bu31 shorter peptide derivatives. On the left, 15 Bu31-derivatives are detailed and classified by aa sequence length, from 9 aa to 15 aa. The box highlights mismatched aa between the donor and recipient. On the right, Treg activation in response to Bu31-derivatives was analyzed by CD25 expression. CD8+ Tregs were cocultured for 6 days with syngeneic CpG-matured pDCs in the presence of each peptide. Bars represent the ratio between the percentage of CD25 positive cells after peptide stimulation and percentage of CD25 positive cells in the control condition without peptide. *p<0.05, **p<0.01 versus Bu31 condition. n=3 to 14 for each peptide.
(§1) Mixed lymphocyte reaction: For MLR coculture assays, pDCs from LEW.1A naive rats (1.25×10^4 cells), syngeneic CD8^+CD40Ig Tregs (5×10^4 cells) and 120 μg/ml of allogeneic peptides were plated in triplicate in 200 μl of complete RPMI-1640 medium in round-bottom 96 wells plates for 6 days at 37° C., 5% CO2. pDCs were matured with 0.5 μM of CpG ODN 1826.
(§2) Proliferation of CFSE-labeled naive CD4^+CD25^− T cells and phenotype of CD8^+CD45RC^low Tregs were analyzed by flow cytometry on a FACSCanto II cytometer (BD Biosciences) after gating on TCR^+CD4^+ cells or TCR^+CD8^+ cells among live cells (DAPI negative).
(§3) Extracellular and intracellular staining: For extracellular staining, cells were stained with the following mAbs: anti-TCRαβ (R73, Alexa Fluor 647-conjugated), anti-CD8α (OX8, PE-Cy7-conjugated, Ebiosciences), anti-CD4 (W3.25, PE-Cy7-conjugated), anti-CD45RC (OX22, FITC-conjugated), anti-CD28 (JJ319, biotin-labeled), anti-CD71 (OX26, biotin-labeled), anti-CD25 (OX39, biotin-labeled) and anti-MHC-II (OX6, biotin-labeled).
In the rat MHC-mismatched heart allograft model, donors (RT1^u) and recipients (RT1^a) are mismatched for all MHC molecules. We therefore aligned donor and recipient MHC I and II amino acids (aa) sequences and designed 82 overlapping 16-mer peptides matching the polymorphic domains of donor MHC I and II molecules (4-6). Peptides were first grouped into pools of 6 to 8 peptides (30 μg/ml of each peptide) and tested in an in vitro assay where immature or mature syngeneic recipient plasmacytoic dendritic cells (pDCs) and sorted-CD8^+CD40Ig Tregs from CD40Ig-treated long-term allograft bearing recipients were cocultured for 3 or 6 days. With immature pDCs, we observed no significant activation of CD8^+CD40Ig Tregs at day 3 or day 6 with any of the allogeneic pools of peptides. After stimulation with mature pDCs and pools of allogeneic peptides we observed at day 3 a slight upregulation of CD25 expression of a small population of CD8^+CD40Ig Tregs, and at day 6, a significant up-regulation of CD25 expression following allogeneic stimulation.

[2] = system: CD4^+CD25^− T cells; assay: In vitro suppressive potential of CD8+CD45RClow Tregs from peptide-treated recipients; format: cell-based, rat; conditions: 6 days culture, donor LEW.1W pDCs, different effector:suppressor ratios
Description: FIG. 7. In vitro suppressive potential of CD8^+CD45RC^low Tregs from Bu31-treated recipients. The proliferation of naive CFSE-labeled LEW.1A CD4^+CD25^− T cells stimulated with donor LEW.1W pDCs was analyzed after 6 days of culture, in the presence of LEW.1A CD8^+CD45RC^low Tregs from naive or Bu31-treated recipients at different effector:suppressor ratio. The CD4^+CD25^− T cell proliferation alone was ˜80% and was given the value 100 in each experiment. Graphs represent the mean±SEM of relative CD4^+CD25^− T cell proliferation. *p<0.05.
For MLR suppressive assays, sorted CFSE-labeled CD4^+CD25^− T cells from LEW.1A origin (5×10^4 cells) and allogeneic pDCs isolated from donor LEW.1W animals (1.25×10^4 cells) were plated in triplicate for 6 days in a final volume of 200 μl of completed RPMI-1640 medium in round-bottom 96 wells plates with FACS-sorted freshly purified naive CD8^+CD45RC^low Treg cells or peptide-expanded CD8^+CD40Ig Treg cells (5×10^4 cells).
as §2

[3] = system: CD8^+CD40Ig Tregs; assay: Flow cytometry phenotype of CD8+ Tregs after ex vivo peptide stimulation; format: cell-based, rat; conditions: 6 days of peptide stimulation
Description: (§4) FIG. 2: CD8+ Tregs phenotype following ex vivo allopeptide stimulation. (A) Tregs and syngeneic CpG-matured pDCs were cultured for 6 days, alone, with a control peptide or with peptide Bu31. Expression of indicated markers was analyzed on CD8+ Tregs in the culture supernatant by ELISA (A) or by flow cytometry (B) after in vitro stimulation. Graphs represent the mean±SEM. *p<0.05, **p<0.01, n=4 to 7.
as §1, §3
For intracellular staining, cells were then stained for Foxp3 (biotin-labeled, Ebiosciences) using BD cytofix/cytoperm kit (BD Biosciences) according to the manufacturer's instructions.
All biotinylated mAbs were visualized using Streptavidin-PerCP.Cy5.5 (BD Biosciences). A FACSCanto II cytofluorimeter (BD Biosciences) was used to measure fluorescence, and data were analyzed using FlowJo software (Tree Star, Inc. USA, version 7.6.5). Cells were first gated by their morphology and dead cells excluded by selecting DAPI negative viable cells.

[4] = system: heart allograft, LEW.1W donors into LEW.1A recipients; assay: Cardiac allograft survival after in vivo peptide infusion
Description: Recipients were either untreated (n=9) or treated with continuous infusion of peptide by i.p mini osmotic pumps (ALZET), delivering from day-7 and for 28 days, either 20.83 μg/hour alone (Bu31 0.5 mg/day: n=6) or 40.66 μg/hour in the LEW.1W/LEW.1A (Du51 1 mg/day: n=5) or combined with a depleting anti-CD8 mAb (OX8) (n=2) or BN/LEW.1A (Du51 1 mg/day (BN/1A): n=4) strains combination.
Animals and cardiac transplantation models: Allotransplantations of heart were performed between whole MHC incompatible LEW.1W (RT1.A^u as donors) and LEW.1A (RT1.A^a as recipients) male rats as previously described (1).
Peptides treatment in vivo: 16-mer peptides were dissolved in 0.4% DMSO/PBS before injection. […] In the second protocol, mini osmotic pumps (ALZET, Cupertino, Calif., USA) were implanted intraperitoneally (i.p) in recipients and delivered continuously either 20.83 or 41.66 μg/hour of 16-mer peptides for 14 days. A first pump was implanted on day −7 before transplantation and was replaced by a second one at day +7, allowing delivery of 14 or 28 mg of peptide per animal for 28 consecutive days. A depleting anti-CD8α mAb (OX8, IgG1, 3 mg/kg) was injected i.p. twice a week from day −7 until rejection. Allografts were monitored daily by palpation and allograft rejection was defined as complete cessation of palpable heart beat.

[5] = system: donor splenocytes; assay: Donor specific alloantibody detection; format: in vivo, rat; conditions: long-term surviving treated recipients vs untreated rats, sera >120 days after transplantation
Description: FIG. 6: Anti-donor immune responses. Allo antibody production was evaluated in naive (n=3), grafted untreated (n=3) and long-term […] (n=4) animals. Sera were collected <30 days after rejection or >120 days after transplantation. Sera were incubated with donor splenocytes and analyzed by flow cytometry for IgG, IgG1 or IgG2b Abs production. Graph represents MFI±SEM.
Donor specific alloantibody detection: Alloantibodies were analyzed by cytofluorimetry as described elsewhere (14). Briefly, after digestion by collagenase D and red blood cell lysis, allogeneic spleen cells were incubated with diluted (⅛) heat-inactivated serum, and then with FITC-conjugated goat anti-rat IgG antibodies (H+L chain specific) (Jackson Laboratories), a mouse anti-rat IgG1 MAb (MCA 194, Serotec) or IgG2b (MCA 195, Serotec). […] Cells were analyzed using a FACS Canto II cytofluorimeter (BD Biosciences, Mountain View, Calif.) and the results were expressed as mean channel fluorescence for each serum.

[6] = system: CD8^+CD40Ig Tregs; assay: Cytokine ELISA in Treg/pDC coculture supernatants after peptide stimulation; format: cell-based, rat; conditions: 6 days peptide stimulation with pDCs
Description: as §4, §1
Cytokine assays: IFNγ, IL-10 were measured in coculture supernatants using ELISA from BD Biosciences OptEIA, IL-12 and TGFβ using ELISA from Invitrogen and R&D System respectively.

[7] = system: cardiac grafts; assay: Morphometric analysis of cardiac grafts (chronic rejection); format: in vivo, rat; conditions: long-term surviving peptide-treated recipients
Description: Morphometric analysis of cardiac grafts: The upper third of the graft was fixed in paraformaldehyde and embedded in paraffin. Five μm coronal sections were stained with hematoxylin-eosine-safron. Tissues were analyzed by a pathologist blinded to the groups and chronic rejection was evaluated as previously described (16).

[8] = system: CD4^+CD25^− T cells; assay: MLR suppressive assay with peptide-stimulated CD8+CD40Ig Tregs; format: cell-based, rat; conditions: day 6, donor LEW.1W pDCs, 1:1 effector:suppressor, vs Tregs stimulated by a non-activating peptide
Description: FIG. 3: Bu31-activated Tregs maintained efficient suppressive activity. Fresh CD8+CD40Ig Tregs and syngeneic CpG-matured pDCs were cocultured for 6 days with either Bu31 or a control peptide. At day 6, Tregs were isolated by cell sorting (TCR+) and their regulatory function was analyzed by measuring their capacity to suppress MLR assay. The relative proportion of naive CFSE-labeled dividing LEW.1A CD4+CD25− T cells after stimulation with donor LEW.1W pDCs was analyzed at day 6 of culture, in the absence or presence of 6 days peptide-stimulated CD8+ Tregs at a 1:1 ratio effector:suppressor. Graphs represent the mean±SEM. *p<0.05 (left). Plots are representative of four independent experiments (right). […]
as §2
Here, we investigated whether Bu31-stimulated CD8^+CD40Ig Tregs could efficiently suppress effector T cell proliferation after 6 days coculture and thus maintained their suppressor activity, compared to CD8^+CD40Ig Tregs stimulated with a non-activating control peptide. […] To evaluate this, we measured the relative proportion of dividing CD4^+CD25^− T cells at day 6 of coculture (FIG. 3).

Sequence: YLRYDSDVGEYRAV (Synthetic 14-mer peptide 31-13)
- activation of CD8+CD40Ig Tregs (CD25 upregulation), in words [1]: much stronger and significant CD25 upregulation

Sequence: LRYDSDVGEYRAVTE (Synthetic 15-mer peptide 31-15)
- activation of CD8+CD40Ig Tregs (CD25 upregulation), in words [1]: much stronger and significant CD25 upregulation

Sequence: YLRYDSDVGEYR (Synthetic 12-mer peptide 31-10)
- activation of CD8+CD40Ig Tregs (CD25 upregulation), in words [1]: much stronger and significant CD25 upregulation

Sequence: YLRYDSDVGEYRAVTE (Synthetic Subdominant peptide Bu31) [16-mer from the β1 chain of donor MHC class II RT1.B^u]
- ex vivo suppressive activity of CD8+CD45RClow Tregs from treated recipients on effector CD4+ T cell proliferation [2]: superior suppressive activity
- CD28 expression on CD8+ Tregs [3]: upregulation
- CD71 expression on CD8+ Tregs [3]: upregulation
- Foxp3 expression in CD8+ Tregs [3]: no modification
- MHC class II expression on CD8+ Tregs [3]: upregulation
- prolongation of allograft survival ([4]; 0.5 mg/day i.p. mini-osmotic pumps for 28 days from day -7, monotherapy): not sufficient to induce prolongation of allograft survival
- indefinite allograft survival, share of recipients ([4]; 1 mg/day i.p. mini-osmotic pumps for 28 days from day -7, LEW.1W/LEW.1A): 80%
- rejection of Brown Norway (BN) third party grafts, time after transplantation ([4]; peptide infusion 1 mg/day, BN/LEW.1A combination): 7 days
- upregulation of CD25 expression at the cell surface of CD8+CD40Ig Tregs, ratio of % CD25 positive cells vs. no peptide ([1]; individual 16-mer peptide, mean±SEM): 1.67±0.09 fold
- IgG1 alloantibodies production [5]: total inhibition
- IgG2b alloantibodies production [5]: total inhibition
- total IgG alloantibodies production [5]: total inhibition
- IFNγ expression in culture supernatant [6]: significant increased expression
- IL-10 expression in culture supernatant [6]: no modification
- IL-12 expression in culture supernatant [6]: no modification
- TGFβ expression in culture supernatant [6]: no modification
- signs of chronic rejection, anatomopathologic analysis of the graft [7]: no signs of chronic rejection
- suppressive activity of peptide-stimulated Tregs: relative proportion of dividing CD4+CD25− effector T cells [8]: maintained an efficient suppressive activity

Sequence: SDVGEYRAVTELGR (Synthetic 14-mer peptide 31-14)
- activation of CD8+CD40Ig Tregs (CD25 upregulation), in words [1]: much stronger and significant CD25 upregulation
